Laboratory results: patent US6156700A, “3-(1,2-Benzisothiazol- and isoxazol-5-yl)-2,4(1H,3H)-pyrimidinedione or thione and 3-(1,2-benzisothiazol- and isoxazol-5-yl)-4(3H)-pyrimidinone or thione herbicidal agents” (American Cyanmid Company, priority 1998, dated 2000)

Columns and labels:
Parameters in all cases: scale not given here
CYPSE Flatsedge = test: Postemergence weed control, flooded paddy (Table IV); type: in vivo, Cyperus serotinus
From the text: (§1) Plastic containers containing weeds which are 3 to 5 cm tall and rice seedlings at the 1.5 to 2.5 leaf stage are flooded with water. The water is maintained at 1.5 to 3 cm above the soil surface for the duration of the experiment. Test compounds are applied as aqueous/acetone mixtures 50/50 v/v directly into the flood water to provide the equivalent of about 0.0313 to 0.500 kg/ha of active ingredient. The treated containers are placed on greenhouse benches and cared for in accordance with conventional greenhouse procedures. Three to four weeks after treatment, the test is terminated and each container is examined and herbicidal effect rated according to the rating system provided in Example 185. The compounds evaluated are reported by compound number given in Example 185.

ORYSAT Rice, Tebonnet = test: Rice tolerance, flooded paddy (Table IV); type: in vivo, Oryza sativa; conditions: crop tolerance
From the text: as §1

MOOVA Monochoria = test: Postemergence weed control, flooded paddy (Table IV); type: in vivo, Monochoria vaginalis
From the text: as §1

[1] = tested on: ECHORC Watergrass (Calif.); test: as above; type: in vivo, Echinochloa oryzoides
From the text: as §1

[2] = tested on: SAGPY Arrowhead (Pygmaea); test: as above; type: in vivo, Sagittaria pygmaea
From the text: as §1

CYPIR Rice Flatsedge = test: as above; type: in vivo, Cyperus iria
From the text: as §1

Row | Compound | herbicidal effect rating (CYPSE Flatsedge; 0.1250 kg/ha) | herbicidal effect rating (CYPSE Flatsedge; 0.2500 kg/ha) | herbicidal effect rating (ORYSAT Rice, Tebonnet; 0.1250 kg/ha) | herbicidal effect rating (ORYSAT Rice, Tebonnet; 0.2500 kg/ha) | herbicidal effect rating (MOOVA Monochoria; 0.1250 kg/ha) | herbicidal effect rating (MOOVA Monochoria; 0.2500 kg/ha) | herbicidal effect rating ([1]; 0.1250 kg/ha) | herbicidal effect rating ([1]; 0.2500 kg/ha) | herbicidal effect rating ([2]; 0.1250 kg/ha) | herbicidal effect rating ([2]; 0.2500 kg/ha) | herbicidal effect rating (CYPIR Rice Flatsedge; 0.1250 kg/ha) | herbicidal effect rating (CYPIR Rice Flatsedge; 0.2500 kg/ha)
1 | CCOC(=O)COc1ccc(C)cc1-c1nsc2ccc(-n3c(=O)cc(C(F)(F)F)n(C)c3=O)cc12 [Compound 49, Ethyl {{2-{5-[3,6-dihydro-3-methyl-2,6-dioxo-4-(trifluoromethyl)-1(2H)-pyrimidinyl]-1,2-benzisothiazol-3-yl}-p-tolyl}oxy}acetate] | 0.0 | 0.0 | 0.0 | 0.0 | 9.0 | 9.0 | 9.0 | 9.0 | 0.0 | 0.0 | 4.0 | 6.0
2 | COC(=O)COc1ccc(C)cc1-c1noc2ccc(-n3c(=O)cc(C(F)(F)F)n(C)c3=O)c(Cl)c12 [Compound 261, Acetic acid,{{2-{4-chloro-5-[3,6-dihydro-3-methyl-2,6-dioxo-4-(trifluoromethyl)-1(2H)-pyrimidinyl]-1,2-benzisoxazol-3-yl}-p-tolyl}oxy}-, methyl ester] | 0.0 | 0.0 | 0.0 | 0.0 | 9.0 | 9.0 | 0.0 | 0.0 | 0.0 | 0.0 | 6.0 | 6.0
3 | COc1c(-c2nsc3ccc(-n4c(=O)cc(C(F)(F)F)n(C)c4=O)cc23)ccc(C)c1C [Compound 267, 2,4(1H,3H)-Pyrimidinedione,3-[3-(2-methoxy-3,4-xylyl)-1,2-benzisothiazol-5-yl]-1-methyl-6-(trifluoromethyl)-] | 0.0 | 0.0 | 6.0 | 7.0 | 9.0 | 9.0 | 9.0 | 9.0 | 0.0 | 0.0 | 9.0 | 9.0
4 | CCOc1cccc(-c2nsc3ccc(-n4c(=O)cc(C(F)(F)F)n(C)c4=O)cc23)c1 [Compound 327, 2,4(1H,3H)-Pyrimidinedione, 3-[3-(m-ethoxyphenyl)-1,2-benzisothiazol-5-yl]-1-methyl-6-(trifluoromethyl)-] | 0.0 | 2.0 | 5.0 | 4.0 | 9.0 | 9.0 | 9.0 | 9.0 | 4.0 | 4.0 | 9.0 | 9.0
5 | CC(C)Oc1cccc(-c2nsc3ccc(-n4c(=O)cc(C(F)(F)F)n(C)c4=O)cc23)c1 [Compound 328, 2,4(1H,3H)-Pyrimidinedione, 3-[3-(m-isopropoxyphenyl)-1,2-benzisothiazol-5-yl]-1-methyl-6-(trifluoromethyl)-] | 6.0 | 6.0 | 4.0 | 4.0 | 9.0 | 9.0 | 9.0 | 9.0 | 2.0 | 6.0 | 9.0 | 9.0
6 | COc1ccc(OC)c(-c2nsc3ccc(-n4c(=O)cc(C(F)(F)F)n(C)c4=O)cc23)c1 [Compound 333, 2,4(1H,3H)-Pyrimidinedione, 3-[3-(2,5-dimethoxyphenyl)-1,2-benzisothiazol-5-yl]-1-methyl-6-(trifluoromethyl)-] | 4.0 | 8.0 | 6.0 | 6.0 | 9.0 | 9.0 | 9.0 | 9.0 | 4.0 | 4.0 | 9.0 | 9.0
7 | CON(C)C(=O)COc1ccccc1-c1nsc2ccc(-n3c(=O)cc(C(F)(F)F)n(C)c3=O)cc12 [Compound 354, Acetamide,2-{o-{5-[3,6-dihydro-3-methyl-2,6-dioxo-4-(trifluoromethyl)-1(2H)-pyrimidinyl]-1,2-benzisothiazol-3-yl}phenoxy}-N-methoxy-N-methyl-] | 9.0 |  | 6.0 |  | 9.0 |  | 9.0 |  | 9.0 |  | 9.0 | 
8 | COC(=O)COc1ccc(C)cc1-c1noc2cc(F)c(-n3c(=O)cc(C(F)(F)F)n(C)c3=O)cc12 [Compound 359, Acetic acid, {{2-{5-[3,6-dihydro-3-methyl-2,6-dioxo-4-(trifluoromethyl)-1(2H)-pyrimidinyl]-6-fluoro-1,2-benzisoxazol-3-yl}-p-tolyl}oxy}-, methyl ester] | 0.0 |  | 4.0 |  | 9.0 |  | 6.0 |  | 0.0 |  | 9.0 | 
9 | CC(C)S(=O)(=O)NC(=O)c1nsc2ccc(-n3c(=O)cc(C(F)(F)F)n(C)c3=O)cc12 [Compound 362, 1,2-Benzisothiazole-3-carboxamide,5-[3,6-dihydro-3-methyl-2,6-dioxo-4-(trifluoromethyl)-1(2H)-pyrimidinyl]-N-(isopropylsulfonyl)-] | 9.0 | 9.0 | 3.0 | 6.0 | 9.0 | 9.0 | 7.0 | 9.0 | 4.0 | 8.0 | 8.0 | 4.0
10 | COCc1nsc2cc(F)c(-n3c(=O)cc(C(F)(F)F)n(C)c3=O)cc12 [Compound 378, 2,4(1H,3H)-Pyrimidinedione, 3-[6-fluoro-3-(methoxymethyl)-1,2-benzisothiazol-5-yl]-1-methyl-6-(trifluoromethyl)-] | 9.0 |  | 9.0 |  | 9.0 |  | 9.0 |  | 9.0 |  | 9.0 | 
11 | COc1cc2c(cc1-c1nsc3ccc(-n4c(=O)cc(C(F)(F)F)n(C)c4=O)cc13)CCC2 [Compound 380, 2,4(1H,3H)-Pyrimidinedione, 3-[3-(6-methoxy-5-indanyl)-1,2-benzisothiazol-5-yl]-1-methyl-6-(trifluoromethyl)-] | 2.0 | 8.0 | 7.0 | 7.0 | 9.0 | 9.0 | 9.0 | 9.0 | 2.0 | 8.0 | 9.0 | 9.0
12 | COc1cc(C)c(I)cc1-c1nsc2ccc(-n3c(=O)cc(C(F)(F)F)n(C)c3=O)cc12 [Compound 429, 2,4(1H,3H)-Pyrimidinedione,3-[3-(5-iodo-2-methoxy-p-tolyl)-1,2-benzisothiazol-5-yl]-1-methyl-6-(trifluoromethyl)-] | 0.0 | 0.0 | 2.0 | 2.0 | 7.0 | 7.0 | 6.0 | 9.0 | 0.0 | 0.0 | 7.0 | 9.0
13 | Cc1ccc(OCC(=O)OCC2(c3ccccc3)CC2)c(-c2nsc3ccc(-n4c(=O)cc(C(F)(F)F)n(C)c4=O)cc23)c1 [Compound 517, Acetic acid, {{2-{5-[3,6-dihydro-3-methyl-2,6-dioxo-4-(trifluoromethyl)-1(2H)-pyrimidinyl]-1,2-benzisothiazol-3-yl}-p-tolyl}oxy}-, (1-phenylcyclopropyl)methyl ester] | 0.0 |  | 0.0 | 0.0 |  |  | 0.0 | 0.0 |  |  | 9.0 | 9.0
14 | C#CCOC(=O)C(C)(C)Oc1ccc(C)cc1-c1nsc2ccc(-n3c(=O)cc(C(F)(F)F)n(C)c3=O)cc12 [Compound 528, Propionic acid, 2-{{2-{5-[3,6-dihydro-3-methyl-2,6-dioxo-4-(trifluoromethyl)-i(2H)-pyrimidinyl]-1,2-benzisothiazol-3-yl}-p-tolyl}oxy}-2-methyl-, 2-propynyl ester] |  | 9.0 | 2.0 | 3.0 |  |  |  |  | 0.0 |  | 6.0 | 6.0
